Laboratory results: publication PMC9571937, “Synthesis and Structure–Activity Relationship Studies of Pyrido [1,2-e]Purine-2,4(1H,3H)-Dione Derivatives Targeting Flavin-Dependent Thymidylate Synthase in Mycobacterium tuberculosis” (Molecules, 2022)

What was measured:
Mtb ThyX [1] = molecular target: T1, Mtb ThyX (Mycobacterium tuberculosis, UniProt P9WG57); experiment: M. tuberculosis ThyX tritium release assay; type: biochemical; details: 200 µM compound
Mtb ThyX [2] = molecular target: T1, Mtb ThyX; experiment: M. tuberculosis ThyX NADPH oxidase assay; type: biochemical; details: for inhibition at 200 µM: 200 μM compound
[3] = NADPH oxidase assay, 50 µM FAD, read-out: Inhibition % (Mtb ThyX)

T1 sequence (P9WG57 whole entry): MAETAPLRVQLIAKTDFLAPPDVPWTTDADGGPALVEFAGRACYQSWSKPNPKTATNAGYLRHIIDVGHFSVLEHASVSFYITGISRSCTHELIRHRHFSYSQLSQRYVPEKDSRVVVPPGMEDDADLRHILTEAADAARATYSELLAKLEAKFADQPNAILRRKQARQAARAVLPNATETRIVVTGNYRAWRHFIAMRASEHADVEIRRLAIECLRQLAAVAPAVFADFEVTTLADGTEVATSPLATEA

Structure (SMILES) | inhibition at 200 µM (Mtb ThyX [2]; [3]) | other results
O=c1[nH]c2c(nc3ccccn32)c(=O)n1-c1ccc(Cl)cc1 [Compound 9b, 3-(4-Chlorophenyl)pyrido [1,2-e]purine-2,4(1H,3H)-dione] | 49.8% | inhibition at 200 µM (Mtb ThyX [1]): 77.1%; ThyX inhibition, tritium release assay (Mtb ThyX [1]; 200 µM): 69.2%; inhibition at 50 µM (Mtb ThyX [2]; 50 µM inhibitor concentration, read-out: ThyX inhibition at 50 µM of inhibitors): 2.2%; inhibition at 200 µM (Mtb ThyX [2]; absence of added FAD, read-out: ThyX inhibition without FAD addition): 12.6%
N#Cc1ccc(Cn2c(=O)n(-c3ccc(F)cc3)c(=O)c3nc4ccccn4c32)cc1 [Compound 13c, 4-[[3-(p-Fluorophenyl)-2,4-dioxo-purino[9,8-a]pyridin-1-yl]methyl]benzonitrile] | 26.5% | –
O=c1c2nc3ccccn3c2n(Cc2ccc([N+](=O)[O-])cc2)c(=O)n1-c1ccc(F)cc1 [Compound 13d, 3-(p-Fluorophenyl)-1-[(p-nitrophenyl)methyl]purino [9,8-a]pyridine-2,4-dione] | 0% | –
COC(=O)c1ccc(Cn2c(=O)n(-c3ccc(F)cc3)c(=O)c3nc4ccccn4c32)cc1 [Compound 13e, Methyl 4-[[3-(p-fluorophenyl)-2,4-dioxo-purino [9,8-a]pyridin-1-l]methyl]benzoate] | 44.8% | –
Cc1ccn2c(c1)nc1c(=O)n(-c3ccc(F)cc3)c(=O)[nH]c12 [Compound 18a, 3-(p-Fluorophenyl)-7-methylpyrido [1,2-e]purine-2,4(1H,3H)-dione] | 45.8% | –
Cc1ccc2nc3c(=O)n(-c4ccc(F)cc4)c(=O)[nH]c3n2c1 [Compound 18b, 3-(p-Fluorophenyl)-8-methylpyrido [1,2-e]purine-2,4(1H,3H)-dione] | 13.2% | –
O=c1[nH]c2c(nc3cc(Br)ccn32)c(=O)n1-c1ccc(F)cc1 [Compound 19a, 7-Bromo-3-(p-fluorophenyl)pyrido [1,2-e]purine-2,4(1H,3H)-dione] | 8.8% | –
O=c1[nH]c2c(nc3ccc(Br)cn32)c(=O)n1-c1ccc(F)cc1 [Compound 19b, 8-Bromo-3-(p-fluorophenyl)pyrido [1,2-e]purine-2,4(1H,3H)-dione] | 5.4% | –
O=c1[nH]c2c(nc3cc(C#CCCc4ccccc4)ccn32)c(=O)n1-c1ccc(F)cc1 [Compound 20a, 3-(p-Fluorophenyl)-7-(4-phenylbut-1-ynyl)-1H-purino [9,8-a]pyridine-2,4-dione] | 32% | –
CCCc1ccc(C#Cc2ccn3c(c2)nc2c(=O)n(-c4ccc(F)cc4)c(=O)[nH]c23)cc1 [Compound 20b, 3-(p-Fluorophenyl)-7-[2-(4-propylphenyl)ethynyl]-1H-purino [9,8-a]pyridine-2,4-dione] | 0% | –
CCCCCCC#Cc1ccn2c(c1)nc1c(=O)n(-c3ccc(F)cc3)c(=O)[nH]c12 [Compound 20e, 3-(p-Fluorophenyl)-7-oct-1-ynyl-1H-purino [9,8-a]pyridine-2,4-dione] | 45.1% | –
CCCCCCCC(=O)NCC#Cc1ccn2c(c1)nc1c(=O)n(-c3ccc(F)cc3)c(=O)[nH]c12 [Compound 20f, N-[3-[3-(p-fluorophenyl)-2,4-dioxo-1H-purino [9,8-a]pyridin-7-yl]prop-2-ynyl]octanamide] | 18.8% | –
CCCCCCNC(=O)NCC#Cc1ccn2c(c1)nc1c(=O)n(-c3ccc(F)cc3)c(=O)[nH]c12 [Compound 20g, 1-[3-[3-(p-Fluorophenyl)-2,4-dioxo-1H-purino [9,8-a]pyridin-7-yl]prop-2-ynyl]-3-hexyl-urea] | 0% | –
O=c1[nH]c2c(nc3ccc(C#CCCc4ccccc4)cn32)c(=O)n1-c1ccc(F)cc1 [Compound 21a, 3-(p-Fluorophenyl)-8-(4-phenylbut-1-ynyl)-1H-purino [9,8-a]pyridine-2,4-dione] | 69.1% | –
CCCCC#Cc1ccc2nc3c(=O)n(-c4ccc(F)cc4)c(=O)[nH]c3n2c1 [Compound 21c, 3-(p-Fluorophenyl)-8-hex-1-ynyl-1H-purino [9,8-a]pyridine-2,4-dione] | 0% | –
CCCCCC#Cc1ccc2nc3c(=O)n(-c4ccc(F)cc4)c(=O)[nH]c3n2c1 [Compound 21d, 3-(p-Fluorophenyl)-8-hept-1-ynyl-1H-purino [9,8-a]pyridine-2,4-dione] | 32.5% | –
CCCCCCC#Cc1ccc2nc3c(=O)n(-c4ccc(F)cc4)c(=O)[nH]c3n2c1 [Compound 21e, 3-(p-Fluorophenyl)-8-oct-1-ynyl-1H-purino [9,8-a]pyridine-2,4-dione] | 31.7% | –
CCCCCCCC(=O)NCC#Cc1ccc2nc3c(=O)n(-c4ccc(F)cc4)c(=O)[nH]c3n2c1 [Compound 21f, N-[3-[3-(p-fluorophenyl)-2,4-dioxo-1H-purino [9,8-a]pyridin-8-yl]prop-2-ynyl]octanamide] | 16.9% | –
CCCCCCNC(=O)NCC#Cc1ccc2nc3c(=O)n(-c4ccc(F)cc4)c(=O)[nH]c3n2c1 [Compound 21g, 1-[3-[3-(p-Fluorophenyl)-2,4-dioxo-1H-purino [9,8-a]pyridin-8-yl]prop-2-ynyl]-3-hexyl-urea] | 28.2% | –
O=c1[nH]c2c(nc3cc(-c4ccccc4)ccn32)c(=O)n1-c1ccc(F)cc1 [Compound 22a, 3-(p-Fluorophenyl)-7-phenyl-1H-purino [9,8-a]pyridine-2,4-dione] | 20.7% | –
Cc1ccc(-c2ccn3c(c2)nc2c(=O)n(-c4ccc(F)cc4)c(=O)[nH]c23)cc1 [Compound 22b, 3-(p-Fluorophenyl)-7-(p-tolyl)-1H-purino [9,8-a]pyridine-2,4-dione] | 45.7% | –
COc1ccc(-c2ccn3c(c2)nc2c(=O)n(-c4ccc(F)cc4)c(=O)[nH]c23)cc1 [Compound 22c, 3-(p-Fluorophenyl)-7-(p-methoxyphenyl)-1H-purino [9,8-a]pyridine-2,4-dione] | ≤ 28% | –
O=c1[nH]c2c(nc3cc(-c4ccc(OC(F)(F)F)cc4)ccn32)c(=O)n1-c1ccc(F)cc1 [Compound 22d, 3-(p-fluorophenyl)-7-[p-(trifluoromethoxy)phenyl]-1H-purino [9,8-a]pyridine-2,4-dione] | ≤ 28% | –
O=c1[nH]c2c(nc3cc(-c4ccc(F)cc4)ccn32)c(=O)n1-c1ccc(F)cc1 [Compound 22e, 3,7-Bis(p-fluorophenyl)-1H-purino [9,8-a]pyridine-2,4-dione] | ≤ 28% | –
Cc1ccc(-c2ccc3nc4c(=O)n(-c5ccc(F)cc5)c(=O)[nH]c4n3c2)cc1 [Compound 23b, 3-(p-Fluorophenyl)-8-(p-tolyl)-1H-purino [9,8-a]pyridine-2,4-dione] | 44.4% | –
COc1ccc(-c2ccc3nc4c(=O)n(-c5ccc(F)cc5)c(=O)[nH]c4n3c2)cc1 [Compound 23c, 3-(p-Fluorophenyl)-8-(p-methoxyphenyl)-1H-purino [9,8-a]pyridine-2,4-dione] | 35.4% | –
O=c1[nH]c2c(nc3ccc(-c4ccc(OC(F)(F)F)cc4)cn32)c(=O)n1-c1ccc(F)cc1 [Compound 23d, 3-(p-Fluorophenyl)-8-[p-(trifluoromethoxy)phenyl]-1H-purino [9,8-a]pyridine-2,4-dione] | 29.4% | –
O=c1[nH]c2c(nc3ccc(-c4ccc(F)cc4)cn32)c(=O)n1-c1ccc(F)cc1 [Compound 23e, 3,8-Bis(p-Fluorophenyl)-1H-purino [9,8-a]pyridine-2,4-dione] | 43.1% | –
